≈ marks a conversion by molar mass, not a printed value.
Assays:
[1] = cited from earlier work
[2] = Solubility test in dissolution medium (pH 1.2); type: physicochemical; settings: dissolution medium (pH 1.2) of Korea Pharmacopeia, simulated gastric fluid, thermodynamic from solid; dissolution medium pH 1.2, shaken at 25° C. for 24 hours, HPLC; Mean ± SD, n = 3
Method: Samples, equivalent to 30 mg of itraconazole, was added to […] of the test solution. The test solution used was the dissolution medium (pH 1.2) for dissolution test of Korea Pharmacopeia. After the samples were ultrasonicated for 30 minutes, they were shaked at 25° C. for 24 hours. Then, they were centrifuged at 3000 rpm for 20 minutes. The obtained supernatant was filtered using a 0.45 μm membrane filter, followed by 10-fold dilution with methanol. The content of itraconazole was measured by HPLC.

solubility at 24 h [2]: 1.5 ± 0.7 µg/mL (≈ 2.13 µM)
SMILES: CCC(C)n1ncn(-c2ccc(N3CCN(c4ccc(OCC5COC(Cn6cncn6)(c6ccc(Cl)cc6Cl)O5)cc4)CC3)cc2)c1=O (racemic) [Itraconazole, (±)-cis-4-[4-[4-[4-[[2-(2,4-dichlorophenyl)-2-(1H-1,2,4-triazole-1-yl-methyl)-1,3-dioxolane-4-yl]methoxy]phenyl]-1-piperazinyl]phenyl]-2,4-dihydro-2-(1-methylpropyl)-3H-1,2,4-triazole-3-one]
Solubility in dichloromethane ([1]; dichloromethane): 239000 µg/mL (≈ 339000 µM) | Solubility in water ([1]; water): less than 1 μg/ml

Source: US20050226924A1, “Composition comprising itraconazole for oral administration” (priority 2004, published 2005)
